Measurements published in patent US6586461B1, “Prenyl transferase inhibitors” (Wayne State University, priority 1998, dated 2003).
“Also recorded” adds a separate entry of the source. Values belong to the molecule of their own block, whether it stands above or below them.

Tests used:
[1] = test system: HPAC (human pancreatic adenocarcinoma cells); assay: Proliferation of HPAC cells, Trypan Blue exclusion; format: cell-based; conditions: 48 hours
Experimental: The malignant human cell line HPAC (human pancreatic adenocarcinoma cells) was used in this study. The cells were seeded at a concentration of 2×10^5/ml in 24 well culture plate (Costar, Cambridge, Mass). […] Varying amounts of the stock solutions were then used to treat the HPAC cells. The final concentration of the farnesol analogs in the culture plate wells ranged from 0 nM (ethanol-treated control) to 500 nM. The plate was then incubated at 37° C. under a 5% CO2-humidified atmosphere for 48 hours. The total viable cells from each well were determined by Trypan Blue (0.4%) exclusion (Gibco, N.Y.) followed by cell counting.

[2] = test system: NIH 3T3 fibroblasts transfected with H-Ras(61 L) [H-Ras-F]; assay: Soft agar anchorage-independent growth, H-Ras-F cells; format: cell-based; conditions: for IC50: soft agar, 2 weeks, read-out: Mean IC50 (±S.E.) H-Ras-F
Experimental: (§1) Presumably, the non-polar alcohols pass through the cell membrane and are then diphosphorylated by an as yet uncharacterized kinase to FPP or GGPP.
(§2) The 3-substituted analogs were evaluated as inhibitors of the growth of ras-transformed cells by comparing their relative degree of activity against an isogenic panel of transformed cell lines, comprised of NIH 3T3 fibroblasts transfected with either H-Ras(61 L) [H-Ras-F], H-Ras(61 L)CVLL [H-Ras-GG], or a transforming form of c-raf [Raf]. The H-Ras-F, H-Ras-GG, and raf transformed NIH3T3 cell lines have been previously described in Cox, et al., Molecular and Cellular Biology, Vol. 12, No. 6, pages 2606-2615 (1992). The cells were grown prior to plating in Dulbecco's modified Eagle medium supplemented with 10% calf serum and 1% antibiotic/antimycotic at 37° C. and 10% CO2. Experiments were carried out in 6-well dishes in a two layer agar system (0.6% bottom layer and 0.3% top layer). Cells were incorporated into the top layer along with varying concentrations of the compound prepared in ethanol. Compound addition occurred only at the time the cells were seeded. Subsequent incubation was at 37° C. with 10% CO2 for 2 weeks. Colonies were stained with 0.5 ml/well of 1 mg/ml p-iodonitrotetrazolium violet (Sigma) for 24 hours prior to quantitation by image analysis.

[3] = test system: NIH 3T3 fibroblasts transfected with H-Ras(61 L)CVLL [H-Ras-GG]; assay: Soft agar anchorage-independent growth, H-Ras-GG cells; format: cell-based; conditions: 2 weeks, read-out: Mean IC50 (±S.E.) H-Ras-GG
Experimental: as §1, §2

[4] = target: recombinant mFTase (affinity purified rat FPTase) (Rattus norvegicus, UniProt Q02293+Q04631); assay: FTase scintillation proximity assay; format: biochemical; conditions: for IC50: recombinant mFTase, tritiated FPP 0.12 μM, peptide 0.1 μM; for FTase/GGTase: selectivity mFTase against mGGTase I; for Ki: varying concentrations of tritiated FPP, read-out: K1 FTase
Experimental: (§3) The method is described in detail in Yokama, et al., J. Biol. Chem., Vol. 272, No. 7, pages 3944-3952 (February 1997). The FTase, tritiated FPP, and the peptide were incubated at 37° C. for 30 minutes in a buffer. After incubation, a stop reagent and streptavidin beads (Amersham) were added. The radioactive product was counted on a Wallac Microbeta 1450 scintillation counter. The kinetic fits were derived from a nonlinear least squares computer fit of the data. The Ki values were determined using the same assay system with varying concentrations of tritiated FPP.

[5] = target: recombinant mGGTase I (Homo sapiens, UniProt P49354+P53609); assay: GGTase I scintillation proximity assay; format: biochemical; conditions: tritiated GGPP
Experimental: as §3
GGTase I values were determined in a similar manner using recombinant mGGTase I, tritiated GGPP, and the peptide Biotin-Aha-Thr-Lys-Cys-Val-Ile-Leu-OH.

[6] = target: T1, recombinant yeast FTase (yFTase) (Saccharomyces cerevisiae, UniProt P22007+P29703); conditions: cited from earlier work
T1 sequence (P22007 1-431): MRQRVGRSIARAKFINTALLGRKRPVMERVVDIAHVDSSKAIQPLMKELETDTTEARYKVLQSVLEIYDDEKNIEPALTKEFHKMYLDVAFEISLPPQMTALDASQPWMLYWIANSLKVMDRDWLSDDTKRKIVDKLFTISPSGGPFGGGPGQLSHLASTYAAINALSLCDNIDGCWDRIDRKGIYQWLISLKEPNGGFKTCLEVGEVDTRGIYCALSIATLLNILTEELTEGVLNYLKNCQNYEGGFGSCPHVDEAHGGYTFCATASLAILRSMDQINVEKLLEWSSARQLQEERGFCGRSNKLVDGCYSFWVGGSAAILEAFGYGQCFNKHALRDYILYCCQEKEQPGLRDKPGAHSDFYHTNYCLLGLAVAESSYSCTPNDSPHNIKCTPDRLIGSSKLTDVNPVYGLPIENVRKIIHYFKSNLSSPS
T1 sequence (P29703 1-316): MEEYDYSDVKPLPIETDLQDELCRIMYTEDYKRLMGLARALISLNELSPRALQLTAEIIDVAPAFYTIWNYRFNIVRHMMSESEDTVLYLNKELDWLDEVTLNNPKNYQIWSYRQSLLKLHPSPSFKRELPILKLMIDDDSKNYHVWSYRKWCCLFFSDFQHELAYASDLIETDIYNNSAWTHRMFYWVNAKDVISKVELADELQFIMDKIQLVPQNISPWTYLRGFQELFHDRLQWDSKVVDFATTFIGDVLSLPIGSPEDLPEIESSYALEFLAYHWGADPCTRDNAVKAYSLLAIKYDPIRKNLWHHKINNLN

[7] = test system: H-Ras-F cells; assay: Cell morphology of lovastatin-treated H-Ras-F cells; format: cell-based; conditions: 25 μM lovastatin 24 h, then analog 24 h
Experimental: It has been well established that levels of lovastatin that completely block the mevalonate pathway result in cell cycle blockade, significant cytotoxicity, and a sharp change in cell appearance to a rounded morphology. The effects of lovastatin on the cell morphology of H-Ras-F and H-Ras-GG cells treated with FPP, GGPP, 3-vFPP, 3-vGGPP, 3-alFPP, and 3-alGGPP were photographed and the results are shown on FIG. 9 (H-Ras-F) and 8 (H-Ras-GG), respectively. The H-Ras-F and H-Ras-GG cells were grown in six-well plates to 70-80% confluence. After treating the cells with lovastatin (25 μM) for 24 hour, the indicated FPP or GGPP analogs (re-suspended in media) were added directly to the cell media. Photographs were taken after an additional 24 hour incubation period.

[8] = test system: H-Ras in H-Ras-F cells; assay: Subcellular fractionation / Western blot of Ras in lovastatin-treated H-Ras-F cells; format: cell-based; conditions: for Subcellular location of H-Ras (membrane vs cytosol): H-Ras-F cells, 25 μM lovastatin 24 h, then analog 24 h
Experimental: (§4) Following an additional 24 h incubation period, the cells were harvested, lysed and the membranes (M) separated from the cytosol (C). After solubilization of the membrane fraction, Ras protein was immunoprecipitated from both the membrane and cytosolic fractions by the addition of the Y13-259 antibody (OP04 from Oncogene Science). The presence of Ras protein in each fraction was analyzed by Western transfer techniques. Incubation with the primary antibody (pan-ras Ab-2 from Oncogene Science) and an anti-mouse HRP conjugate secondary antibody (Amersham) was employed for detection of the ras protein. Blots were developed using Enhanced Chemiluminescence techniques (Amersham). The technique is described in detail by Scholten, et al., Bioorg. Med. Chem., Vol. 4, pages 1537-1543 (1992).
The results are shown in FIGS. 6 and 7 which are Western blots of the H-Ras-F and H-Ras-GG experiments, respectively. H-Ras-F cells were treated with lovastatin in order to block the mevalonate pathway, prevent the formation of FPP and GGPP, and thus, inhibit protein prenylation.

[9] = test system: NIH 3T3 fibroblasts transfected with a transforming form of c-raf [Raf]; assay: Soft agar anchorage-independent growth, Raf cells; format: cell-based; conditions: 2 weeks, mean of two tests
Experimental: as §1, §2

[10] = test system: H-Ras-GG in H-Ras-GG cells; assay: Subcellular fractionation / Western blot of Ras in lovastatin-treated H-Ras-GG cells; format: cell-based; conditions: summary statement
Experimental: as §4, with “H-Ras-F (A) or H-Ras-GG (B) cells were treated with 25 μM lovastatin for 24 h after which the indicated FPP or GGPP analogs (resuspended in media) were added directly to the cell media. Following” for “Following”
The selectivity and mechanism of the observed cell growth inhibition was further probed by studying the effects of the 3-vinyl and 3-allyl GGPP analogs on the subcellular distribution of the geranylgeranylated protein variant in H-Ras-GG cells in a manner similar to that described for 3-vFPP and 3-alFPP. The Western blot is shown on FIG. 8. With H-Ras-GG cells, as with H-Ras-F cells, blockage of the mevalonate pathway results in a shift in the subcellular location of the Ras protein from the membrane to the cytosol.

Molecule: 3-Allyl 7,11-dimethyldodeca-2(Z),6(E),10-trien-1-ol [3-ally Farnesol]
Effect on HPAC cells at 100 nM ([1]; 100 nM): cytostasis | Viable HPAC cell count at 100 nM ([1]; 100 nM, seeded 2×10^5/ml, control well 2.2×10^6 cells): ~2×10^5 /well | Effect on HPAC cells at 500 nM ([1]; 500 nM, listed as 3-allylfarnesol): potently cytotoxic; also recorded: complete cytotoxicity

Molecule: CCC(=CCO)CCC=C(C)CCC=C(C)C [3-ethyl Farnesol]
IC50 [2]: > 25000 nM | IC50 [3]: > 25000 nM

Molecule: CC(C)=CCC/C(C)=C/CC/C(=C/COP(=O)(O)OP(=O)(O)O)C(C)(C)C [Compound 3-tbFPP, 3-tert-butyl-2(Z),6(E),10-triene diphosphate]
Mode of inhibition of mFTase versus FPP [4]: competitive inhibitors | IC50 [4]: 31 nM | FTase/GGTase [4]: ˜1600 | Ki [4]: 8 nM | IC50 [5]: ~50000 nM | Inhibition of yFTase [6]: potent competitive inhibitor | Substrate activity for yFTase [6]: exceptionally poor substrate

Molecule: CC(C)=CCC/C(C)=C/CC/C(C)=C/CC/C(C)=C/CO [geranylgeraniol, reference compound]
Reversal of rounded morphology of lovastatin-treated H-Ras-F cells [7]: can be reversed

Molecule: CC[C@H](C)C(=O)O[C@H]1C[C@@H](C)C=C2C=C[C@H](C)[C@H](CC[C@@H]3C[C@@H](O)CC(=O)O3)[C@H]21 [lovastatin, reference compound]
Subcellular location of H-Ras (membrane vs cytosol) [8]: shift of the majority of H-Ras from the membrane fraction (M) to the cytosol (C)

Molecule: C=C/C(=C\COP(=O)(O)OP(=O)(O)O)CC/C=C(\C)CCC=C(C)C [Compound 3-vFPP, 3-Vinyl-7,11-dimethyldodeca-2(Z),6(E),10-triene 1-Diphosphate]
Mode of inhibition of mFTase versus FPP [4]: competitive inhibitors | IC50 [4]: 173 nM | FTase/GGTase [4]: ˜600 | Ki [4]: 96 nM | IC50 [5]: ~100000 nM | Blocking of prenylation of Ras proteins in H-Ras-F cells [8]: neither 3-vinylfarnesol nor 3-vFPP blocked the prenylation of Ras proteins | Subcellular location of H-Ras (membrane vs cytosol) [8]: virtually complete localization of the H-Ras protein in the membrane fraction (M) | Reversal of rounded morphology of lovastatin-treated H-Ras-F cells [7]: modest ability to do so | Substrate activity for yFTase [6]: poor alternative substrate

Molecule: CC(C)=CCC/C(C)=C/CC/C(C)=C/CC/C(C)=C/COP(=O)(O)OP(=O)(O)O [GGPP, geranylgeranyl diphosphate, reference compound]
Reversal of rounded morphology of lovastatin-treated H-Ras-F cells [7]: can be reversed

Molecule: CC(C)=CCCC(C)=CCCC(=CCO)c1ccccc1 [3-phenyl Farnesol]
IC50 [2]: > 25000 nM | IC50 [3]: > 25000 nM

Mode of inhibition of mFTase versus FPP [4]: competitive inhibitors | IC50 [4]: 189 nM | FTase/GGTase [4]: >530 | Ki [4]: 31 nM
Molecule: C=CC/C(=C\COP(=O)(O)OP(=O)(O)O)CC/C=C(\C)CCC=C(C)C [Compound 3-alFPP, 3-Allyl-7,11-dimethyldodeca-2(Z),6(E),10-triene 1-diphosphate]
Subcellular location of H-Ras (membrane vs cytosol) [8]: virtually all of the H-Ras being found in the cytosol | Reversal of rounded morphology of lovastatin-treated H-Ras-F cells [7]: not able to reverse the morphology

IC50 [4]: 299 nM | FTase/GGTase [4]: >340
Molecule: CC(C)=CCC/C(C)=C/CC/C(=C/COP(=O)(O)OP(=O)(O)O)c1ccccc1 [Compound 3-phFPP]

Molecule: C=C/C(=C\CO)CC/C=C(\C)CC/C=C(\C)CCC=C(C)C [3-vinyl Geranylgeraniol, 3-Vinyl-7,11,15-trimethylhexadeca-2(Z),6(E),10(E),14-tetraen-1-ol]
IC50 [2]: 18000 ± 4100 nM | IC50 [3]: 13900 ± 2300 nM | IC50 [9]: 5600 nM | Protein geranylgeranylation in cells [10]: restores protein geranylgeranylation in cells

IC50 [4]: 215 nM | FTase/GGTase [4]: >460
Molecule: CC/C(=C\COP(=O)(O)OP(=O)(O)O)CC/C=C(\C)CCC=C(C)C [Compound 3-etFPP]

Molecule: CC(C)=CCC/C(C)=C/CC/C(=C/CO)C(C)(C)C [3-tert-butylfarnesol, 3-tert-Butyl-7,11-dimethyldodeca-2(Z),6(E),10-trien-1-ol]
Cellular activity (transformed cell growth, soft agar), in words ([2]; transformed NIH3T3 cell lines): inactive in cells
